Read-outs that look alike come from different tables or passages of the source.
What was measured:
[1] = biological target: T1, rat atrial β-adrenoceptors (Rattus norvegicus, UniProt P18090); experiment: β-Adrenoceptor activity in isolated rat right atrium; conditions: vs isoprenaline, up to 100 μM; for Ki: read-out: pKi β (rat atrial β-adrenoceptors) (converted)
T1 construct: Right atria were removed from rats and placed immediately into oxygenated Krebs solution; from tissue; host or cells: isolated, spontaneously beating rat right atrium
T1 sequence (P18090 whole entry): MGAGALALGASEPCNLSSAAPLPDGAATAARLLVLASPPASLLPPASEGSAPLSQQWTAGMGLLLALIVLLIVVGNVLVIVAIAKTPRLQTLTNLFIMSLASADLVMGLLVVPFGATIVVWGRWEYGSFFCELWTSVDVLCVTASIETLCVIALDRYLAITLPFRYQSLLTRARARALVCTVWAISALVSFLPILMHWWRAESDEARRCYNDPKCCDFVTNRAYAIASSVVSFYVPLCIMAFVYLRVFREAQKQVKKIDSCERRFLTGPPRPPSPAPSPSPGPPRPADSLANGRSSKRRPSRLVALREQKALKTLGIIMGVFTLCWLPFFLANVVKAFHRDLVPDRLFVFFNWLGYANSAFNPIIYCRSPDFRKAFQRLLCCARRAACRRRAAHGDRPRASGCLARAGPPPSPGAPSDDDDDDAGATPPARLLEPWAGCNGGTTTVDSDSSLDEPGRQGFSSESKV
Procedure: Determination of -Adrenoceptor Activity in the Isolated Rat Right Atrium
Right atria were removed from rats and placed immediately into oxygenated Krebs solution at 37° C. The Krebs solution was replaced three times at 5 min intervals and the tissues were tensioned three times to 0.5 g. In spontaneously beating atria, a control concentration effect curve to isoprenaline was generated. β-Adrenoceptor-mediated increase in atrial rate were measured as the response. […]. The antagonist effects of the test compounds were measured using the dose-ratio method, by comparing the shift in pEC50 for isoprenaline.

human 5-HT1A receptor = biological target: T2, human 5-HT1A receptor (Homo sapiens, UniProt P08908); experiment: Radioligand binding at human 5-HT1A
T2 construct: expressed in transfected cells; host or cells: COS-7, transient (a cell line 5-HT1A-3, ATCC CRL 11889, is also named)
T2 sequence (P08908 1-422): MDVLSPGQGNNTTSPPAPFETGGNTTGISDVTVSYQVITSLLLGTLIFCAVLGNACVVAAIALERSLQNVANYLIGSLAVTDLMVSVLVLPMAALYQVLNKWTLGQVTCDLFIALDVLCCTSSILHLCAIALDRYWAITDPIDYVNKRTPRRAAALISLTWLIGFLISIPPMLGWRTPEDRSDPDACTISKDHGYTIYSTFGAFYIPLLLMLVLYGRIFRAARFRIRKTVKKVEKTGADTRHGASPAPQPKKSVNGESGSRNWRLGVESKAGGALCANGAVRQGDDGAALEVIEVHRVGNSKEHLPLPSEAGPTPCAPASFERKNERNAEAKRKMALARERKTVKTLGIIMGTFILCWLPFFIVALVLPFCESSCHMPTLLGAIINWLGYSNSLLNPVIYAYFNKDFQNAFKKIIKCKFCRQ
Procedure: The cDNA corresponding to the 5-HT1A receptor open reading frames and variable non-coding 5'- and 3'-regions, was cloned into the eukaryotic expression vector pCEXV-3. These constructs were transfected transiently into COS-7 cells by the DEAE-dextran method, and harvested after 72 hours. Radioligand binding assays were performed as described above for the 5-HT2 receptor, except that [3H]-8-OH-DPAT was used as the radioligand and nonspecific binding was determined by the addition of 10 μM mianserin.

human 5-HT1E receptor = biological target: T3, human 5-HT1E receptor (Homo sapiens, UniProt P28566); experiment: Radioligand binding at human 5-HT1E; conditions: [3H]serotonin; for Ki: read-out: pKi 5-HT1E (converted)
T3 construct: expressed in transfected cells; host or cells: LM(tk-) clonal cell line, designated 5-HT1E-7, ATCC CRL 10913 (cell lysates)
T3 sequence (P28566 whole entry): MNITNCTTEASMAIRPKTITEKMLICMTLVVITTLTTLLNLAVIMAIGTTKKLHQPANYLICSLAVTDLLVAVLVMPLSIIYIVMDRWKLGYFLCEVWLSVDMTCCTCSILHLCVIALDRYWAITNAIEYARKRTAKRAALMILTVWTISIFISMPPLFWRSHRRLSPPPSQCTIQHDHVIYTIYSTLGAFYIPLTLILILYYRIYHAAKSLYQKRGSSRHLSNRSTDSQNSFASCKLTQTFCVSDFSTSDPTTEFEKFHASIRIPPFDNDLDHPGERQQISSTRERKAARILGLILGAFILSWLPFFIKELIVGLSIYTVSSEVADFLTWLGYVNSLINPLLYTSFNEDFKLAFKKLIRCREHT
Procedure: (§1) Human Serotonin Receptors
(§2) 5-HT1Dα, 5-HT1Dβ, 5-HT1E, 5-HT1F, and 5-HT7 Receptors: The cell lysates of LM(tk-) clonal cell line stably transfected with the genes encoding each of these 5-HT receptor-subtypes were prepared as described above. The cell line for the 5-HT1Dαreceptor, designated as Ltk-8-30-84, was deposited on Apr. 17, 1990, and accorded ATCC Accession No. CRL 10421. The cell for the 5-HT1Dβ receptor, designated as Ltk-11, was deposited on Apr. 17, 1990, and accorded ATCC Accession No. CRL 10422. The cell line for the 5-HT1E receptor, designated 5-HT1E -7, was deposited on Nov. 6, 1991, and accorded ATCC Accession No. CRL 10913. The cell line for the 5-HT1F receptor, designated L-5-HT1F, was deposited on Dec. 27, 1991, and accorded ATCC Accession No. CRL 10957. The cell line for the 5-HT7 receptor, designated as L-5-HT-4B, was deposited on Oct. 20, 1992, and accorded ATCC Accession No. CRL 11166. These preparations were suspended in 50 mM Tris-HCl buffer (pH 7.4 at 37° C.) containing 10 mM MgCl2, 0.2 mM EDTA, 10 μM pargyline, and 0.1% ascorbate. […] Nonspecific binding was determined in the presence of 10 μM serotonin. The bound radioligand was separated by filtration through GF/B filters using a cell harvester.

human 5-HT1Dβ receptor = biological target: T4, human 5-HT1Dβ receptor (Homo sapiens, UniProt P28222); experiment: Radioligand binding at human 5-HT1Dβ
T4 construct: expressed in transfected cells; host or cells: LM(tk-) clonal cell line, designated Ltk-11, ATCC CRL 10422 (cell lysates)
T4 sequence (P28222 whole entry): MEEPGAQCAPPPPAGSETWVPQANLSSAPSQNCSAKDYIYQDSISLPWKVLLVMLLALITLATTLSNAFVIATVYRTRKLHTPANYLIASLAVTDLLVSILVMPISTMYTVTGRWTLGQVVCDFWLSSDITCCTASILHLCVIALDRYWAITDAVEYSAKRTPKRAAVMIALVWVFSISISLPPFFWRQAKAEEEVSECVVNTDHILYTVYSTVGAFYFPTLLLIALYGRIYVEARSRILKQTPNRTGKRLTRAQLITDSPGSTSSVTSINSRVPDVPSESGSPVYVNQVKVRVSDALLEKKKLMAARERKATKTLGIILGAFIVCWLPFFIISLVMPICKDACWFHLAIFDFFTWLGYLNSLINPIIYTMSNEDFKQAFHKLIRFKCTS
Procedure: as §1
as §2, with “17, 1990, and accorded ATCC Accession No. CRL 10421.” left out, “17, 1990, and accorded ATCC Accession No. CRL 10422.” left out, “6, 1991, and accorded ATCC Accession No. CRL 10913.” left out, “27, 1991, and accorded ATCC Accession No. CRL 10957.” left out, “20, 1992, and accorded ATCC Accession No. CRL 11166.” left out

SMILES | pKi β (rat atrial β-adrenoceptors) [1] | pKi 5-HT1A (human 5-HT1A receptor; [3H]-8-OH-DPAT) | pKi 5-HT1E (human 5-HT1E receptor) | pKi 5-HT1Dβ (human 5-HT1Dβ receptor; [3H]serotonin) | Ki [1] | Ki (human 5-HT1A receptor) | Ki (human 5-HT1E receptor) | Ki (human 5-HT1Dβ receptor) | Ki (human 5-HT1A receptor; [3H]-8-OH-DPAT, read-out: pKi 5-HT1A (converted)) | Ki (human 5-HT1Dβ receptor; [3H]serotonin, read-out: pKi 5-HT1Dβ (converted))
CNCCc1ccc(O)c(NS(C)(=O)=O)c1 [SK&F 102652] | < 4 | 5.8 | 5.3 | 5.5 | – | – | – | – | – | –
COc1ccc(SC)c2c1C[C@@H]1[C@@H](C2)OCCN1C (relative stereo) [SDZ NVI-085, (±)-trans-4-Methyl-6-methoxy-9-thiomethoxy-3,4,4a, 5,10,10a-hexahydro-2H-naphtho[2,3-b][1,4]oxazine] | – | – | – | – | > 100 µM | 0.0794 µM | 2 µM | 0.02 µM | – | –
CS(=O)(=O)Nc1c(O)ccc2c1CCCC2C1=NCCN1 (racemic) [Compound A-61603, (±)-N-[5-(4,5-Dihydro-1H-imidazol-2-yl)-2-hydroxy-5,6,7,8-tetra-hydronaphthalen-1-yl]methanesulfonamide] | – | – | – | – | > 100 µM | – | 5.01 µM | – | 3.98 µM | 6.31 µM

Reference: patent publication US5610174A, “Use of α1A -selective adrenoceptor agonists for the treatment of urinary incontinence” (priority 1995, dated 1997)
